In brackets after ≈: the same amount, converted by molar mass.
Legend:
[1] = tested on: Candida albicans ATCC 10231; experiment: Anti-fungal broth microdilution (MIC), fungus D; format: cell-based; conditions: yeast protocol, more than 80% inhibition, 48 h
Description: (§1) Anti-fungal activity of selected compounds of the invention was assessed by means of anti-fungal susceptibility tests as follows.
(§2) The antifungal activities of the compounds of the invention against different fungi were measured according to standard broth microdilution methods of the US National Committee for Clinical Laboratory standards (NCCLS) for yeasts (NCCLS document M27-A, 1997) and filamentous fungi (NCCLS document M38-A, 2002).
(§3) Stock solutions of compounds of the invention were freshly prepared on the days of experiments equal to 1.28 mg/10 ml media. Serial dilutions were performed to achieve the following testing concentrations: 64 μg/ml, 32 μg/ml, 16 μg/ml, 8 μg/ml, 4 μg/ml, 2 μg/ml, 1 μg/ml, 0.5 μg/ml, 0.25 μg/ml and 0.125 μg/ml.
(§4) An inoculum of 10^6 CFU/ml of the fungi strain was prepared in the appropriate medium and transferred to test tubes for incubation.
(§5) The method is used to determine the minimum inhibitory concentrations (MIC) of drugs on fungi strains. […] For the filamentous fungi protocol, MIC determination took place after 48 to 72 h of culture at 35° C. and was defined at that concentration which produced more than 50% visible growth inhibition.

[2] = tested on: Cryptococcus neoformans ATCC 90112; experiment: Anti-fungal broth microdilution (MIC), fungus H; format: cell-based; conditions: yeast protocol, more than 80% inhibition, 48 h
Description: as §1, §2, §3, §4, §5

[3] = tested on: Aspergillus fumigatus 040-200167; experiment: Anti-fungal broth microdilution (MIC), fungus C; format: cell-based; conditions: filamentous protocol, more than 50% growth inhibition, 48 to 72 h
Description: as §1, §2, §3, §4, §5

[4] = tested on: Aspergillus fumigatus 322-384; experiment: Anti-fungal broth microdilution (MIC), fungus B; format: cell-based; conditions: filamentous protocol, more than 50% growth inhibition, 48 to 72 h
Description: as §1, §2, §3, §4, §5

[5] = tested on: Cryptococcus neoformans H99; experiment: Anti-fungal broth microdilution (MIC), fungus I; format: cell-based; conditions: yeast protocol, more than 80% inhibition, 48 h
Description: as §1, §2, §3, §4, §5

[6] = tested on: Aspergillus fumigatus ATCC 204305; experiment: Anti-fungal broth microdilution (MIC), fungus A; format: cell-based; conditions: filamentous protocol, more than 50% growth inhibition, 48 to 72 h
Description: as §1, §2, §3, §4, §5

[7] = tested on: Candida albicans ATCC 90028; experiment: Anti-fungal broth microdilution (MIC), fungus E; format: cell-based; conditions: yeast protocol, more than 80% inhibition, 48 h
Description: as §1, §2, §3, §4, §5

[8] = tested on: Cryptococcus gattii ATCC 32608; experiment: Anti-fungal broth microdilution (MIC), fungus J; format: cell-based; conditions: yeast protocol, more than 80% inhibition, 48 h
Description: as §1, §2, §3, §4, §5

[9] = tested on: Candida parapsilosis ATCC 22019; experiment: Anti-fungal broth microdilution (MIC), fungus G; format: cell-based; conditions: yeast protocol, more than 80% inhibition, 48 h
Description: as §1, §2, §3, §4, §5

[10] = tested on: Candida albicans TS3; experiment: Anti-fungal broth microdilution (MIC), fungus F; format: cell-based; conditions: yeast protocol, more than 80% inhibition, 48 h
Description: as §1, §2, §3, §4, §5

[11] = tested on: Bacteroides fragilis DSM 2151 (ATCC 25285); experiment: Anti-bacterial bouillon microdilution assay (MIC), bacterium E; format: cell-based; conditions: anaerob, 24 h
Description: (§6) Selected compounds of the invention were tested in a bouillon microdilution assay method according to the DIN 58940 (www.din.de) guidelines for determination of susceptibility of bacterial strains with regard to cell growth inhibition. The assay method quantifies bacterial cell growth which corresponds to the turbidity of the liquid culture medium by photometric measurement carried out at 595 nm.
(§7) The method of MIC determination was performed according to DIN 58940-5. The volumina were adapted according to the microdilution method as described in DIN 58940-7 guideline.
(§8) Dependent on water solubility, compounds of the invention were dissolved either in water or ethanol in a concentration of 10 mg/ml. Subsequently, the stock was further diluted in water to a concentration of 512 μg/ml. The following serial dilutions (factor 2) were performed in water resulting in the following […] testing concentrations: 256 μg/ml, 128 μg/ml, 64 μg/ml, 32 μg/ml, 16 μg/ml, 8 μg/ml, 4 μg/ml, 2 μg/ml, 1 μg/ml, 0.5 μg/ml, 0.25 μg/ml and 0.125 μg/ml. Diluted compounds of the invention were transferred in 100 μl volume to the microtiter plate wells.
(§9) Pre-cultures of bacteria were grown in appropriate liquid media (refer to ATCC webpage, www.atcc.org) and afterwards were inoculated in corresponding liquid medium. 100 μl of the inoculums [adjusted to an amount of app. 1×10^6 microorganisms per ml (range of 10^5-10^8 microorganisms per ml)] were added to each of the testing compound concentrations and cultivated under the appropriate conditions.
(§10) Before and after incubation, bacterial growth was determined by photometric analysis against a positive control containing growing bacteria without compound and a sterile/negative control containing only the medium.

[12] = tested on: SKOV-3 (human ovary adenocarcinoma) cells; experiment: XTT cytotoxicity assay, SKOV-3 cells; format: cell-based; conditions: Homo sapiens, SK-OV-3, second set of experiments, read-out: SKOV-3 % INH [100 μM]
Description: On the first day of the experiment cells were harvested from exponential phase cultures by trypsination, counted and plated into 96 well flat-bottom micro titer plates depending on the cell line as listed below: [table] After a 24 h recovery to allow the cells to resume exponential growth, the test compounds were diluted immediately prior to use and transferred in 25 μl volume to the wells. Following 2 days of continuous drug exposure 50 μl of freshly prepared XTT-PMS solution {2% 0.386 mg/ml PMS (N-Methyl Dibenzopyrazine Methylsulphate; Sigma, Cat. No. […] Serva, Cat. No. 38450) in RPMI 1640 medium without phenol red} was added to the wells. To measure the proportion of living cells, the cells were incubated for 3 h with XTT-PMS reagent at 37° C., 5% CO2, humidified atmosphere allowing to form the formazan salt. […] Inhibition curves were generated and IC50 values calculated by using GraphPad Prism.

[13] = tested on: PC3 (human prostate carcinoma) cells; experiment: XTT cytotoxicity assay, PC3 cells; format: cell-based; conditions: Homo sapiens, PC-3; 31.6 μM, second set of experiments; read-out: PC3 % INH [31.6 μM]
Description: (§11) Cytotoxicity of selected compounds of the invention against different mammalian cell lines was assessed as follows.
(§12) Human tumor cell lines KB/HeLa (ATCC CCL17, human cervix carcinoma), PC3 (ATCC CRL1435, human prostate carcinoma) and RKOp21 (human colon adenocarcinoma; Schmidt et al., Oncogene 2000, 19: 2423-2429) cells were used in an automated XTT screening assay for the assessment of cytotoxicity.
(§13) The XTT assay quantifies cellular metabolic activity which correlates with cell viability and cell number. Test compounds (selected compounds of the invention and known substances as controls) are dissolved in culture medium at 600 μM and added to the tumor cells in 10 different concentrations in a semi-logarithmic fashion starting from 100 μM as highest concentration.
(§14) In a second set of experiments employing PC3, RKOp21 and SKOV-3 (ATCC HTB-77, human ovary adenocarcinoma) cells, test and reference compounds were dissolved in 70% Ethanol/30% H2O in a stock concentration of 10 mM and diluted in cell culture medium to yield either 31.6 μM (PC3 and RKOp21) or 100 μM (SKOV-3) final concentration.
(§15) 48 h later cellular metabolic activity of cells treated with test compounds is quantified by measurement of the absorbance at 490 nm (conversion of XTT dye) in comparison to untreated control cells (100% viability).
(§16) KB/HeLa and PC3 cells were cultivated in RPMI 1640 medium (Gibco, Cat. No. 42401-018) supplemented with 10% heat inactivated fetal calf serum (FCS, Biochrom AG, Cat. No. S0115), 2 mM L-glutamine (Gibco, Cat. No. 25030-24) and 2% Penicillin-Streptomycin (PenStrep, Gibco, Cat. No. 15140-122). RKOp21 cells were grown in DMEM+GlutaMAXTM-I medium (Gibco, Cat. No. 61965-026) supplemented with 10% heat inactivated fetal calf serum (FCS, Biochrom AG, Cat. No. S0115), 2 mM L-glutamine (Gibco, Cat. No. 25030-24), 2% Penicillin-Streptomycin (PenStrep, Gibco, Cat. No. 15140-122) and 1% 1M HEPES (Gibco, Cat. No. 15630-056). All cells were cultured at 37° C. in 5% CO2 humidified air.
(§17) On the first day of the experiment cells were harvested from exponential phase cultures by trypsination, counted and plated into 96 well flat-bottom micro titer plates depending on the cell line as listed below:
(§18) After a 24 h recovery to allow the cells to resume exponential growth, the test compounds were diluted immediately prior to use and transferred in 25 μl volume to the wells.
(§19) Following 2 days of continuous drug exposure 50 μl of freshly prepared XTT-PMS solution {2% 0.386 mg/ml PMS (N-Methyl Dibenzopyrazine Methylsulphate; Sigma, Cat. No. P9625) in PBS+98% 1 mg/ml XTT (Sodium 2,3-bis(2-methoxy-4-nitro-5-sulfophenyl)-5-[(phenylamino)carbonyl]-2H-Tetrazolium; Serva, Cat. No. 38450) in RPMI 1640 medium without phenol red} was added to the wells. To measure the proportion of living cells, the cells were incubated for 3 h with XTT-PMS reagent at 37° C., 5% CO2, humidified atmosphere allowing to form the formazan salt. The amount of soluble formazan salt produced by cellular reduction of XTT is quantified by measuring the absorbance at 490 nm using the Biomek® 2000 ELISA plate reader. %-inhibition (cytotoxicity) of each test compound was calculated in relation to untreated control cells. Inhibition curves were generated and IC50 values calculated by using GraphPad Prism.

[14] = tested on: RKOp21 (human colon adenocarcinoma) cells; experiment: XTT cytotoxicity assay, RKOp21 cells; format: cell-based; conditions: Homo sapiens; 31.6 μM, second set of experiments; read-out: RKOp21 % INH [31.6 μM]
Description: as §11, §12, §13, §14, §15, §16, §17, §18, §19

[15] = tested on: PC3, RKOp21 and SKOV-3 cell lines; experiment: XTT cytotoxicity assay, mean over all three cell lines; format: cell-based, human; conditions: mean value over all three cell lines
Description: Following 2 days of continuous drug exposure 50 μl of freshly prepared XTT-PMS solution {2% 0.386 mg/ml PMS (N-Methyl Dibenzopyrazine Methylsulphate; Sigma, Cat. No. […] Serva, Cat. No. 38450) in RPMI 1640 medium without phenol red} was added to the wells. To measure the proportion of living cells, the cells were incubated for 3 h with XTT-PMS reagent at 37° C., 5% CO2, humidified atmosphere allowing to form the formazan salt. […] Inhibition curves were generated and IC50 values calculated by using GraphPad Prism. In the following table 7 cytotoxicity results (% inhibition of cell growth) obtained in the second set of experiments for selected compounds of the invention are presented in comparison to examples of the prior art (perifosine, miltefosine). The results presented are individual values for the respective cell line as well as the mean value over all three cell lines tested.

[16] = tested on: Moraxella catarrhalis DMS 11994 (ATCC 43617); experiment: Anti-bacterial bouillon microdilution assay (MIC), bacterium D; format: cell-based; conditions: ATCC43617, 24 h
Description: as §6, §7, §8, §9, §10

| MIC [11] [µg/mL] | MIC [16] [µg/mL] | SMILES | MIC, fungus D [1] [µg/mL] | MIC, fungus H [2] [µg/mL] | MIC, fungus C [3] [µg/mL] | MIC, fungus B [4] [µg/mL] | MIC, fungus I [5] [µg/mL] | MIC, fungus A [6] [µg/mL] | MIC, fungus E [7] [µg/mL] | MIC, fungus J [8] [µg/mL] | MIC, fungus G [9] [µg/mL] | MIC, fungus F [10] [µg/mL] | inhibition at 100 µM [12] [%] | inhibition at 31.6 µM [13] [%] | inhibition at 31.6 µM [14] [%] | Mean % INH [15] [%] |
| --- | --- | --- | --- | --- | --- | --- | --- | --- | --- | --- | --- | --- | --- | --- | --- | --- |
|  |  | CCCCCCCCCCCCCCCCCCOP(=O)([O-])OCC[As+](C)(C)C [Compound 22, Phosphoric acid octadecyl ester 2-(N,N,N-trimethyl-arsen)-ethyl ester] | 0.5 | 1.5 | 3 | 2 | 6.6 | 3 | 1 | 0.5 | 1 | 1 |  |  |  |  |
| 128 (≈ 295 µM) |  | CCCCCCCCCCCCCCCCOP(=O)([O-])OCC[N+]1(C)CCCC1 [Compound 90] |  |  |  |  |  |  |  |  |  |  | 54.6 | 55.5 | 51.9 | 54.0 |
| 128 (≈ 247 µM) | 8 (≈ 15.5 µM) | CCCCCCCCCCCCCCCCOP(=O)([O-])OCC[N+]1(C)C=CC(C(=O)OCC)CC1 (stereo not shown) [Compound 266] |  |  |  |  |  |  |  |  |  |  | 8.5 | 25.8 | 6.6 | 13.6 |
|  |  | CCCCCCCC/C=C\CCCCCCCCCCCCOP(=O)([O-])OCC[N+](C)(C)C [ErPC, (13Z)-docosenylphosphocholine, reference compound] | >64 | 4 (≈ 8.17 µM) | >64 | >64 | 3 (≈ 6.13 µM) | >64 | >64 | 1.5 (≈ 3.06 µM) | 64 (≈ 131 µM) | 64 (≈ 131 µM) |  |  |  |  |

From patent US20070167408A1, “NOVEL ALKYL PHOSPHOLIPID DERIVATIVES WITH REDUCED CYTOTOXICITY AND USES THEREOF” (ZENTARIS GmbH, priority 2005, published 2007)
